Results on one compound are retold here after patent publication US10689341B2, “Small molecule N-(alpha-peroxy) indole compounds and methods of use” (King Abdullah University of Science and Technology, priority 2016, dated 2020).

This series in a line: Stability in CDC13 in the NMR tube at room temperature. In kind it is physicochemical. The conditions noted are these: decomposed in one day.

As to `COc1ccc2c(c1)c(CCNC(C)=O)cn2C(CC(C)C)OOC(C)(C)CC(OC(C)=O)OC(C)=O` (stereo not shown) [Compound 7], the “stability in CDC13” value is “not be stable”.
